According to patent publication US20260274814A1, “THIENYL COMPOUNDS FOR THE TREATMENT OF A CENTRAL NERVOUS SYSTEM DISEASE OR DISORDER” (Coreterra Therapeutics, Inc., priority 2023, published 2026):
Structures can show the parent of a compound that is named as a salt.

System: mice
Assay: Neuropharmacological Assay (SmartCube): automated behavioral signature of compound-treated mice compared with a database of reference drug classes
Type: in vivo
Settings: for AD / AG / AN / CE / HL / MS / PS / SH / AP / AX / UK: SmartCube class probability, 3.0 mg/kg i.p., 15 min before test; for MED / minimal effective dose: minimal effective dose: dose having 45% or more total activity in SmartCube, i.p., if only one dose tested, that dose is shown; for minimal effective dose: Mus musculus, ip, read-out: MED
Method in brief: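 Probabilities reflect how closely the digitally recorded behavioural signature at 3.0 mg/kg i.p. matched each reference class (antipsychotic, anxiolytic, antidepressant etc.). Dosing occurred 15 min before testing. Minimal effective dose was the dose giving 45% or more total activity.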

SMILES	AD	AG	AN	CE	HL	MS	PS	SH	AP (hydrochloride, 3 mg/kg)	AX (hydrochloride, 3 mg/kg)	UK (hydrochloride, 3 mg/kg)	MED (hydrochloride)	UK	AP	minimal effective dose	AX	AD (hydrochloride, 3 mg/kg)	AN (hydrochloride, 3 mg/kg)	PS (hydrochloride, 3 mg/kg)
CNC1CCCc2cscc2C1 (single isomer, unassigned) [Compound 169, N-methyl-5,6,7,8-tetrahydro-4H-cyclohepta[c]thiophen-5-amine hydrochloride]	ND (^ <4%)	ND (^ <4%)	ND (^ <4%)	ND (^ <4%)	ND (^ <4%)	ND (^ <4%)	ND (^ <4%)	ND (^ <4%)	ND (^ <4%)	ND (^ <4%)	++ (≥24%)	3 mpk							
CNC1CCCc2cscc2C1 (single isomer, unassigned) [Compound 170, N-methyl-5,6,7,8-tetrahydro-4H-cyclohepta[c]thiophen-5-amine hydrochloride]	ND (^ <4%)	ND (^ <4%)	ND (^ <4%)	ND (^ <4%)	ND (^ <4%)	ND (^ <4%)	ND (^ <4%)	ND (^ <4%)	+++ (≥49%)	++ (≥24%)	ND (^ <4%)	1 mpk							
CCNC1CCc2cscc2C1 (single isomer, unassigned) [Compound 171, N-ethyl-4,5,6,7-tetrahydro-2-benzothiophen-5-amine hydrochloride]	ND (^ <4%)	ND (^ <4%)	ND (^ <4%)	ND (^ <4%)	ND (^ <4%)	ND (^ <4%)	ND (^ <4%)	ND (^ <4%)	++++ (≥74%)	ND (^ <4%)		3 mpk	ND (^ <4%)						
CCNC1CCc2cscc2C1 (single isomer, unassigned) [Compound 172, N-ethyl-4,5,6,7-tetrahydro-2-benzothiophen-5-amine hydrochloride]	ND (^ <4%)	ND (^ <4%)	ND (^ <4%)	ND (^ <4%)	ND (^ <4%)	ND (^ <4%)	ND (^ <4%)	ND (^ <4%)	ND (^ <4%)	++++ (≥74%)		1 mpk	ND (^ <4%)						
CNC1CCc2scc(C#N)c2C1 (single isomer, unassigned) [Compound 174, 5-(methylamino)-4,5,6,7-tetrahydrobenzothiophene-3-carbonitrile hydrochloride]	ND (^ <4%)	ND (^ <4%)	ND (^ <4%)	ND (^ <4%)	ND (^ <4%)	ND (^ <4%)	ND (^ <4%)	+ (≥4%)		ND (^ <4%)		1 mpk	ND (^ <4%)	ND (^ <4%)					
CNC1CCc2scc(C#N)c2C1 (single isomer, unassigned) [Compound 175, 5-(methylamino)-4,5,6,7-tetrahydrobenzothiophene-3-carbonitrile hydrochloride]	ND (^ <4%)	ND (^ <4%)	ND (^ <4%)	ND (^ <4%)	ND (^ <4%)	ND (^ <4%)	ND (^ <4%)	+ (≥4%)		+++ (≥49%)		3 mpk	ND (^ <4%)	ND (^ <4%)					
N#Cc1csc2c1CC(N)CC2 (single isomer, unassigned) [Compound 176, 5-amino-4,5,6,7-tetrahydrobenzo[b]thiophene-3-carbonitrile hydrochloride]	ND (^ <4%)	ND (^ <4%)	ND (^ <4%)	ND (^ <4%)	ND (^ <4%)	ND (^ <4%)	ND (^ <4%)	ND (^ <4%)			ND (^ <4%)			ND (^ <4%)	> 3 mg/kg	ND (^ <4%)			
N#Cc1csc2c1CC(N)CC2 (single isomer, unassigned) [Compound 177, 5-amino-4,5,6,7-tetrahydrobenzo[b]thiophene-3-carbonitrile hydrochloride]	ND (^ <4%)	ND (^ <4%)	ND (^ <4%)	ND (^ <4%)	ND (^ <4%)	ND (^ <4%)	ND (^ <4%)	ND (^ <4%)			++++ (≥74%)	3 mpk		ND (^ <4%)		ND (^ <4%)			
CNC1(C)CCc2sccc2C1 (single isomer, unassigned) [Compound 178, N, 5-dimethyl-6,7-dihydro-4H-benzothiophen-5-amine hydrochloride]		ND (^ <4%)		ND (^ <4%)	ND (^ <4%)	ND (^ <4%)		ND (^ <4%)				1 mpk	ND (^ <4%)	ND (^ <4%)		ND (^ <4%)	+ (≥4%)	ND (^ <4%)	++++ (≥74%)
CNC1(C)CCc2sccc2C1 (single isomer, unassigned) [Compound 179, N, 5-dimethyl-6,7-dihydro-4H-benzothiophen-5-amine hydrochloride]		ND (^ <4%)		ND (^ <4%)	ND (^ <4%)	ND (^ <4%)		ND (^ <4%)				3 mpk	ND (^ <4%)	ND (^ <4%)		ND (^ <4%)	+++ (≥49%)	+ (≥4%)	+ (≥4%)
CNC1CCc2sc(C3CC3)cc2C1 (single isomer, unassigned) [Compound 183, 2-cyclopropyl-N-methyl-4,5,6,7-tetrahydrobenzothiophen-5-amine hydrochloride]	ND (^ <4%)	ND (^ <4%)	ND (^ <4%)	ND (^ <4%)	ND (^ <4%)	ND (^ <4%)	ND (^ <4%)	ND (^ <4%)					++ (≥24%)	ND (^ <4%)	3 mg/kg	ND (^ <4%)			
CNC1CCc2sc(C3CC3)cc2C1 (single isomer, unassigned) [Compound 184, 2-cyclopropyl-N-methyl-4,5,6,7-tetrahydrobenzothiophen-5-amine hydrochloride]	ND (^ <4%)	ND (^ <4%)	ND (^ <4%)	ND (^ <4%)	ND (^ <4%)	ND (^ <4%)	ND (^ <4%)	ND (^ <4%)				>3 mpk	++ (≥24%)	ND (^ <4%)		ND (^ <4%)			
